Source: paper PMC2947196 (2010)

Columns and labels:
[1] = target: MCT1 (monocarboxylate transporter 1) (Rattus norvegicus, UniProt P53987); experiment: inhibition of L-[…]lactate uptake in Xenopus oocytes; format: cell-based; settings: read-out: Inhibitor-insensitive component (%)
[2] = target: T1, MCT2 (monocarboxylate transporter 2) (Rattus norvegicus, UniProt Q63344); experiment: as above; format: cell-based; settings: read-out: % inhibition at 10 nM
T1 sequence (Q63344 1-489): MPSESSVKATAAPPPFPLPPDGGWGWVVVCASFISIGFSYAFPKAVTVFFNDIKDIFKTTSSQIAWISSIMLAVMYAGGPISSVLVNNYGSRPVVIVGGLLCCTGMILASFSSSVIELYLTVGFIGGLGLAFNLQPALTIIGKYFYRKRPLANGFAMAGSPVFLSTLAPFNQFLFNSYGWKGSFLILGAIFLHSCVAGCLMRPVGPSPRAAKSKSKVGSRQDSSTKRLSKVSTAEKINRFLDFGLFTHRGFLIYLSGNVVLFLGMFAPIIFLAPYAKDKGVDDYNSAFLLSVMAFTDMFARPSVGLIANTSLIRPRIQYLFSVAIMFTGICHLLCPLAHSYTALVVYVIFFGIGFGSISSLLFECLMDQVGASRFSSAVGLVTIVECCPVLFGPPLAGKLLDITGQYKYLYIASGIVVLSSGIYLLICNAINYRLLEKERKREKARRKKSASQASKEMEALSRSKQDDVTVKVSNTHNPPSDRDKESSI

CC(O)C(=O)O = experiment: cells, lysate or membranes

Chain of MCT1 (monocarboxylate transporter 1) (P53987 whole entry): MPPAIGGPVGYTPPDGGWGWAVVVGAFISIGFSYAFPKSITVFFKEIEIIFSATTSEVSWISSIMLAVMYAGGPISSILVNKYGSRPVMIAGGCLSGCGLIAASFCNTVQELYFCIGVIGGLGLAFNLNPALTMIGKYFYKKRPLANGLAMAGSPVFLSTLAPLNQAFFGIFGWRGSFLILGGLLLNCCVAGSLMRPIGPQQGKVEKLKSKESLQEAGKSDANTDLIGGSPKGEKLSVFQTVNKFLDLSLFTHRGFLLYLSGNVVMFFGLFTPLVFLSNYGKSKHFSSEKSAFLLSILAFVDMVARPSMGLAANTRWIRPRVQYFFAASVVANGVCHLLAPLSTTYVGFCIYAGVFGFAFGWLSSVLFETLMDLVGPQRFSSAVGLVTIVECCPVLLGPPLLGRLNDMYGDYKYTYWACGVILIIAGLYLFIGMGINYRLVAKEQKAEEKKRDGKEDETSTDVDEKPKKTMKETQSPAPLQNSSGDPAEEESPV

In the case of `Cc1n[nH]c(C)c1Cc1sc2c(c1C(=O)N1C[C@H](O)CO1)c(=O)n(C)c(=O)n2CC(C)C` [AR-C155858], the activity at 0.1 µM [1] is reported as 1.9 ± 0.6% and the inhibition at 0.01 µM [2] is reported as ~70%.

For “MCT1 (monocarboxylate transporter 1) (Rattus norvegicus)”, the Km (CC(O)C(=O)O) was 4.4 ± 1.5 mM.
